Assay results taken from patent US4175133A, “1,2-Diaminocyclohexane platinum (II) complexes having antineoplastic activity against L1210 leukemia” (priority 1977, dated 1979).
Counter-ions that a name gives are not always drawn.

How the values were obtained:
[1] = test system: cancer; settings: in vivo; cited from earlier work
[2] = test system: L1210 leukemia; settings: Gale et al 1974; cited from earlier work
[3] = test system: L1210 leukemia; test: antineoplastic activity against L1210 leukemia in mice, individual treatment (10^5 L1210 cells ip); type: in vivo; settings: for % ILS: 10^5 cells; for Dose/Injection range found safe and effective for providing %ILS of at least 25%, Schedule B: ip injections on days 1, 5 and 9 after implant; for Dose/Injection range found safe and effective for providing %ILS of at least 25%, Schedule C: ip injections on each of days 1-9 after implant; for Dose/Injection range found safe and effective for providing %ILS of at least 25%, Schedule A: single ip injection on day 1 after implant
Method: Schedule A consisted of a single injection administered ip on the first day following implant of the L1210 leukemia cells. (i.e., 24 hours after implant). Schedule B consisted of a three-injection regimen, with one injection being administered ip on each of the first, fifth and ninth days following implant. Schedule C consisted of a nine-injection regimen, with one injection being administered ip on each of the first through ninth days following implant.
In this set of tests, the mice received 10^5 L1210 leukemia cells by ip injection, and were divided into groups of 10, including a control group.

[4] = test system: ADJ/PC6A plasma cell tumor; settings: in comparison with cis-dichlorodiammineplatinum (II); Connors et al 1972; cited from earlier work
[5] = test system: L1210 leukemia; test: combination chemotherapy against L1210 leukemia in mice (10^6 L1210 cells ip, schedule A); type: in vivo; settings: Yoshi-864 and cyclophosphamide 75 mg/kg each; for % ILS: dichloro complex 2.5 mg/kg; for 60-Day Survivors: out of 10, dichloro complex 2.5 mg/kg
Text: The significance of this test system in evaluating potential antineoplastic agents and the test protocol therefor, are described in detail by Geran et al, "Protocols for Screening Chemical Agents and Natural Products Against Animal Tumors and Other Biological Systems" (Third Edition), Cancer Chemotherapy Reports, Part 3, Volume 3, No. 2, Pages 1-103, September 1972. Briefly, the test procedure involves implanting L1210 leukemia cells into mice by intraperitoneal (i.p.) injection, beginning i.p. treatment with the test drug 24 hours after implant, and determining the antineoplastic activity of the test drug at optimum dose levels and schedules of administration as the percent increase in life span (%ILS) of the treated mice over the untreated control mice.
In this set of tests, the mice received by ip injection 10^6 L1210 leukemia cells, which produces a somewhat more advanced stage of the disease after 24 hours than is obtained upon using 10^5 cells as described in the previous set of tests. The mice were then divided into groups of ten, including a control group, and all mice within the same group were given the same treatment. Treatment was administered ip employing the A schedule of administration. […] The treatments tested were each of the three treating agents by themselves and the dichloro complex in combination with each of the other two treating agents. The resulting %ILS values and the number of mice (out of the group of 10) which survived sixty days following implant, are set forth in Table III.

[6] = test system: Sarcoma 180; settings: Cleare et al 1973; cited from earlier work
[7] = test system: L1210 leukemia; test: combination chemotherapy against L1210 leukemia in mice (10^6 L1210 cells ip, schedule A); type: in vivo; settings: Yoshi-864 and cyclophosphamide 75 mg/kg each; for 60-day Survivors: out of 10, sulfato complex 4 mg/kg
[8] = test system: L1210 leukemia; test: antineoplastic activity of hydroxonitrato complex against L1210 leukemia in mice (10^6 L1210 cells ip); type: in vivo; settings: Schedule A
Method: The mice received by ip injection 10^6 L1210 leukemia cells, which produces a somewhat more advance stage of the disease after 24 hours than is obtained upon using 10^5 cells as described previously. The mice were then divided into groups of six, including a control group. […] The highest %ILS value obtained was 144 at a dose level of 10 mg/kg.

[9] = out of 10, dinitrato complex 3 mg/kg
[10] = highest %ILS regardless of schedule or dose level
[11] = hydroxymalonato complex 30 mg/kg
[12] = out of 10, hydroxymalonato complex 30 mg/kg
[13] = out of 10, malonato complex 15 mg/kg

Compound | 60-Day Survivors [5] | % ILS ([7]; dinitrato complex 3 mg/kg) | 60-Day Survivors [7, 9] | level of antineoplastic activity greater than that achieved with the dichloro complex [3, 10] | Dose/Injection range found safe and effective for providing %ILS of at least 25%, Schedule B [3] | Dose/Injection range found safe and effective for providing %ILS of at least 25%, Schedule C [3] | Dose/Injection range found safe and effective for providing %ILS of at least 25%, Schedule A [3] | % ILS [7, 11] | 60-Day Survivors [7, 12] | % ILS ([7]; malonato complex 15 mg/kg) | 60-Day Survivors [7, 13] | 60-day Survivors [7] | % ILS ([7]; sulfato complex 4 mg/kg) | other results
N.N.[Cl][Pt][Cl] [cis-dichlorodiammineplatinum (II)] | – | – | – | – | – | – | – | – | – | – | – | – | – | therapeutic index (in words) [1]: rather low therapeutic index
NC1CCCCC1N.[Cl][Pt][Cl] (centres unmarked) [Dichloro complex, dichloro (1,2-diaminocyclohexane) platinum (II)] | 0 mice | – | – | – | – | – | – | – | – | – | – | – | – | combination with cyclophosphamide (in words) [2]: combined synergistically; effectiveness against L1210 leukemia (in words) [2]: highly effective; increase in mean survival time in comparison with cis-dichlorodiammineplatinum (II) [2]: up to 54%; % ILS ([3]; Schedule A, 6.25 mg/kg/injection ip): 114%; % ILS ([3]; Schedule B, 8.0 mg/kg/injection ip): 113%; % ILS ([3]; Schedule C, 2.0 mg/kg/injection ip): 153%; ID50 (in words) [4]: quite similar to those of cis-dichlorodiammineplatinum (II); LD50 (in words) [4]: quite similar to those of cis-dichlorodiammineplatinum (II); % ILS [5]: 73%; antitumor activity against Sarcoma 180 (in words) [6]: only marginal antitumor activity
NC1CCCCC1N.O=[N+]([O-])[O-].O=[N+]([O-])[O-].[Pt+2] (centres unmarked) [Dinitrato complex, dinitrato (1,2-diaminocyclohexane) platinum (II)] | – | 110% | 0 mice | 83% | 0.25 to 4 mg/kg | 0.05 to 2 mg/kg | 0.5 to 8 mg/kg | – | – | – | – | – | – | % ILS ([3]; Schedule A, 4.0 mg/kg/injection ip): 113%; % ILS ([3]; Schedule B, 4.0 mg/kg/injection ip): 247%; % ILS ([3]; Schedule C, 0.5 mg/kg/injection ip): 281%
hydroxymalonato (1,2-diaminocyclohexane) platinum (II) [Hydroxymalonato complex] | – | – | – | 111% | 5 to 37.5 mg/kg | 1 to 15 mg/kg | 2 to 150 mg/kg | 118% | 0 mice | – | – | – | – | water solubility: 1500 µg/mL; % ILS ([3]; Schedule A, 75.0 mg/kg/injection ip): 97%; % ILS ([3]; Schedule B, 37.5 mg/kg/injection ip): 162%; level of antineoplastic activity greater than that achieved with the malonato complex [3, 10]: 19%; potency against L1210 leukemia relative to malonato complex (in words) ([3]; in comparison with malonato complex): even greater potency
CS(=O)(=O)OCCCNCCCOS(C)(=O)=O [Yoshi-864, 1-propanol, 3,3'-iminodi-,dimethanesulfonate (ester) hydrochloride] | 0 mice | 116% | 0 mice | – | – | – | – | 117% | 0 mice | 112% | 0 mice | 0 mice | 95% | % ILS [5]: 81%
NC1CCCCC1N.O=C([O-])CC(=O)[O-].[Pt+2] (centres unmarked) [Malonato complex, malonato (1,2-diaminocyclohexane) platinum (II)] | – | – | – | 77% | 10 to 40 mg/kg | 5 to 20 mg/kg | 2.5 to 160 mg/kg | – | – | 80% | 0 mice | – | – | % ILS ([3]; Schedule A, 2.5 mg/kg/injection ip): 258%; % ILS ([3]; Schedule A, 40.0 mg/kg/injection ip): 271%; % ILS ([3]; Schedule B, 40.0 mg/kg/injection ip): 157%; % ILS ([3]; Schedule C, 10.0 mg/kg/injection ip): 219%; antitumor activity against Sarcoma 180 (in words) [6]: only marginal antitumor activity
NC1CCCCC1N.O=[N+]([O-])[O-].[OH-].[Pt+2] (centres unmarked) [Hydroxonitrato complex, hydroxonitrato (1,2-diaminocyclohexane) platinum (II)] | – | – | – | – | 1 to 5 mg/kg | 0.3 to 1.25 mg/kg | 2.5 to 15 mg/kg | – | – | – | – | – | – | % ILS ([8]; 10 mg/kg ip, 10^6 cells): 144%; greater %ILS value than dichloro complex ([8]; 10^6 cells vs dichloro complex at 10^5 cells): 26%
O=P1(N(CCCl)CCCl)NCCCO1 (centres unmarked) [Cyclophosphamide, cyclophosphamide] | 0 mice | 105% | 0 mice | – | – | – | – | 107% | 0 mice | 118% | 0 mice | 0 mice | 97% | % ILS ([7]; dichloro complex 2.5 mg/kg): 79%
NC1CCCCC1N.O=S(=O)([O-])[O-].[Pt+2] (centres unmarked) [Sulfato complex, sulfato (1,2-diaminocyclohexane) platinum (II)] | – | – | – | 86% | 0.2 to 5 mg/kg | 0.1 to 1.2 mg/kg | 0.5 to 10 mg/kg | – | – | – | – | 0 mice | 119% | % ILS ([3]; Schedule A, 5.0 mg/kg/injection ip): 116%; % ILS ([3]; Schedule B, 3.33 mg/kg/injection ip): 285%; % ILS ([3]; Schedule C, 0.6 mg/kg/injection ip): 239%
